Our source for the Phospholipidosis values is ChEMBL document CHEMBL1697681, “Predicting phospholipidosis using machine learning” (Mol Pharm, 2010).

This data set has as its system Phospholipidosis. As to the kind of experiment: Literature-mined public compounds from Lowe et al phospholipidosis modelling dataset.

In the case of `CCN(CC)CCOC(=O)c1ccc(N)cc1` [PROCAINE], the Phospholipidosis result is “Negative”.

As to `CN(C)CCCN1c2ccccc2Sc2ccccc21` [PROMAZINE], the Phospholipidosis result is listed as “Positive”. Regarding `CC(CN1c2ccccc2Sc2ccccc21)N(C)C` (configuration not stated) [PROMETHAZINE], the Phospholipidosis entry is listed as “Positive”. Consider `CC(C)NCC(O)COc1cccc2ccccc12` (configuration not stated) [PROPRANOLOL], for which the Phospholipidosis entry is “Positive”. The value for `CCN(CC)CCCC(C)Nc1c2ccc(Cl)cc2nc2ccc(OC)cc12` (configuration not stated) [QUINACRINE] was “Positive”; that for `C=C[C@H]1C[N@@]2CC[C@H]1C[C@@H]2[C@@H](O)c1ccnc2ccc(OC)cc12` [QUINIDINE] was “Positive”; that for `CO[C@H]1/C=C/O[C@@]2(C)Oc3c(C)c(O)c4c(O)c(c(/C=N/N5CCN(C)CC5)c(O)c4c3C2=O)NC(=O)/C(C)=C\C=C\[C@H](C)[C@H](O)[C@@H](C)[C@@H](O)[C@@H](C)[C@H](OC(C)=O)[C@@H]1C` [RIFAMPIN] was “Negative”. Consider `CN(C)[C@@H]1C(O)=C(C(=O)NCN2CCCC2)C(=O)[C@@]2(O)C(O)=C3C(=O)c4c(O)cccc4[C@@](C)(O)[C@H]3C[C@@H]12` [ROLITETRACYCLINE], for which the Phospholipidosis result is “Negative”. For the molecule `CN[C@H]1CC[C@@H](c2ccc(Cl)c(Cl)c2)c2ccccc21` [SERTRALINE], the Phospholipidosis entry is “Positive”.

For the molecule `CC(C)NCC(O)c1ccc(NS(C)(=O)=O)cc1` (configuration not stated) [SOTALOL], the Phospholipidosis entry is listed as “Negative”. Regarding `CN[C@@H]1[C@H](O)[C@H](NC)[C@H]2O[C@@]3(O)C(=O)C[C@@H](C)O[C@H]3O[C@@H]2[C@H]1O` [SPECTINOMYCIN], the Phospholipidosis entry is “Positive”. The value for `Cc1cn([C@H]2C=C[C@@H](CO)O2)c(=O)[nH]c1=O` [STAVUDINE] was “Negative”; that for `N=C(N)c1ccc(/C=C/c2ccc(C(=N)N)cc2)cc1` [STILBAMIDINE] was “Positive”; that for `Cc1cc(NS(=O)(=O)c2ccc(N)cc2)no1` [SULFAMETHOXAZOLE] was “Negative”. As for `Cc1ccc(C(=O)Nc2ccc(S(=O)(=O)O)c3cc(S(=O)(=O)O)cc(S(=O)(=O)O)c23)cc1NC(=O)c1cccc(NC(=O)Nc2cccc(C(=O)Nc3cc(C(=O)Nc4ccc(S(=O)(=O)O)c5cc(S(=O)(=O)O)cc(S(=O)(=O)O)c45)ccc3C)c2)c1` [SURAMIN], the Phospholipidosis entry is “Positive”. As for `N=C(N)NCCCCCCCCCCNC(=N)N` [SYNTHALIN], the Phospholipidosis result is “Negative”. In the case of `Nc1c2c(nc3ccccc13)CCCC2` [TACRINE], the Phospholipidosis entry was “Negative”.

Turning to `CC/C(=C(\c1ccccc1)c1ccc(OCCN(C)C)cc1)c1ccccc1` [TAMOXIFEN], the Phospholipidosis result is given as “Positive”.

For `Cn1nnc2c(C(N)=O)ncn2c1=O` [TEMOZOLOMIDE], the Phospholipidosis entry is reported as “Negative”.

With `CN(C)[C@@H]1C(O)=C(C(N)=O)C(=O)[C@@]2(O)C(O)=C3C(=O)c4c(O)cccc4[C@@](C)(O)[C@H]3C[C@@H]12` [TETRACYCLINE], the Phospholipidosis entry was “Negative”. In the case of `CC(=N)S` [THIOACETAMIDE], the Phospholipidosis entry is on record as “Negative”. On to `CSc1ccc2c(c1)N(CCC1CCCCN1C)c1ccccc1S2` (configuration not stated) [THIORIDAZINE], for which the Phospholipidosis entry is recorded as “Positive”. Then `CCN(CC)CCOc1ccc2c(c1)C(=O)c1cc(OCCN(CC)CC)ccc1-2` [TILORONE], with “Positive”. Turning to `NC[C@H]1O[C@H](O[C@H]2[C@H](O)[C@@H](O[C@H]3O[C@H](CO)[C@@H](O)[C@H](N)[C@H]3O)[C@H](N)C[C@@H]2N)[C@H](N)C[C@@H]1O` [TOBRAMYCIN], the Phospholipidosis result was “Positive”.

Turning to `CC(CN(C)C)CN1c2ccccc2CCc2ccccc21` (configuration not stated) [TRIMIPRAMINE], the Phospholipidosis entry is on record as “Positive”. As to `CCN(CC)CCOc1ccc(C(O)(Cc2ccc(Cl)cc2)c2ccc(C)cc2)cc1` (configuration not stated) [TRIPARANOL], the Phospholipidosis result is reported as “Positive”. For the molecule `CN(C)CCN(Cc1ccccc1)c1ccccn1` [TRIPELENNAMINE], the Phospholipidosis entry is given as “Positive”.
